In US10351586B2, “Cytidine derivative dimers and applications thereof” (CHANGZHOU FANGYUAN PHARMACEUTICAL CO., LTD, priority 2014, dated 2019):
Marks after values point to notes of the source that are not given here.

Experiments:
[1] = system: HCT-116 human colon cancer xenografts; assay: Tumor growth inhibition of HCT-116 human colon cancer xenografts in nude mice; type: in vivo, Balb/c nude mice; conditions: for Relative tumor proliferation rate (T/C %) / Relative tumor volume (RTV) / Tumor growth inhibition rate (TGI %) / Tumor volume of HCT-116 human colon cancer xenografts: single IP injection (QD×1), D1 and D2 400 mg/kg, D3 350 mg/kg, D4 300 mg/kg; for Tumor volume of HCT-116 human colon cancer xenografts: Mean±SEM
Experimental: 2. Preparation of the test substance was performed by dissolving the test substance using the following solvents:
3. Animal experiments were performed. […] Animals were numbered using their tail number.
4.1 Tumor cells were human HCT-116 colon cancer cells purchased from the Institute of Cell Biology, Chinese Academy of Sciences (Beijing, China). F-12 medium (containing 10% FBS) was used to culture cells in a carbon dioxide incubator at about 37° C., saturated humidity, under 5% CO2 and 95% air. Before inoculation, cells in logarithmic growth phase were collected. After digested by 0.25% trypsin, the cells were washed with PBS once. The cells were resuspended with serum-free medium and counted. Serum-free medium were used for cell resuspension, until the cell concentration was adjusted to about 3×10^7 cell/mL.
4.2 Animal inoculation and grouping were performed.
The diameters (D) of the tumor nodules were measured three times a week with a circle sizer ruler. In addition, the following formula was applied to calculate the volume of the tumor nodules (V): V=[…](D/2)^3 generally for a spherical shape. Evaluation indexes of antitumor activity were tumor growth inhibition rate TGI (%) and relative tumor proliferation rate T/C (%).
The calculation formula of TGI was: TGI (%)=(Vcontrol−VTreatment)/Vcontrol)×100%. The relative tumor volume (RTV) was calculated by: RTV=Vt/V0, where V0 is the tumor volume at the time of group administration, and Vt is the tumor volume at the time of measurement.
The mice were weighed 3 times every week.
4.5 Data and statistical analysis were provided.

[2] = Body weight / toxicity of a single intraperitoneal injection in HCT-116 colon tumor-bearing nude mice; conditions: D3 350 mg/kg, D4 300 mg/kg; for Average rate of weight change of the animals / Average weight of the animals: single IP injection (QD×1), D1 and D2 400 mg/kg; for Average weight of the animals: Mean±SEM
Experimental: Corresponding test substance was weighed and put into a 5 mL glass tube. The test substance was dissolved in ethanol under the stirring by a 5 mm magnetic stirrer. After a complete dissolution, Cremophor EL was added with continuous stirring. Immediately prior to the user of the test substance, the labeled amount of physiological saline was added and stirred.
Animal experiments were performed. The animals were female Balb/c nude mice at specific pathogen free (SPF) level and were supplied from Shanghai Sippr/BK Lab Animal Ltd. (Shanghai, China). […] These animals were at the age of about 7 weeks to about 9 weeks at the beginning of the experiments and had the weight of about 18 grams to about 22 grams at the beginning of the experiment. The animals had acclimatization duration of about 5 days to about 7 days. Animals were numbered using their tail number. The animal room was maintained at about 23±2° C., 40%-70% humidity, with alternating light and dark every 12 hours.
4.2 Animal inoculation and grouping were performed. Under aseptic conditions, each nude mice was injected with 0.1 mL cell suspension into the right hind leg subcutaneously (3×10^6 cell/mouse). When the size of the tumor grew to have a volume of about 60-150 mm^3, nude mice with a similar tumor size and a desirable shape (e.g., with substantially same shape such as a substantially spherical shape, without having irregular shapes or multiple tumors grouped together) were selected and grouped. In the experiment, there were six mice in each group.
The mice in control group were injected with a mixed solution including ethanol, Cremophor EL and normal saline at a ratio of 5:5:90.
4.4 Clinical symptoms were provided. All clinical symptoms of each animal were recorded at the beginning of the experiments and during the experiments. The observation was performed at the same time every day.
After administration of the test substance, when the weight reduction was >20%, when the animal was dying, or when the tumor volume exceeds about 2800 mm^3, the animal were euthanized by applying CO2. The tumor was separated and weighed, an autopsy was performed, and visual inspection was conducted and recorded on whether there were pathological changes in the organs.

[3] = D1 400 mg/kg Day 7, D2 400 mg/kg Day 9, D3 350 mg/kg Day 11, D4 300 mg/kg Day 11, single IP

For CCCCOC(=O)Nc1ccn(C2OC(COC(=O)CCC(=O)OC[C@H]3O[C@@H](n4ccc(NC(=O)OCc5ccccc5)nc4=O)C(F)(F)[C@@H]3O)C(O)C2(F)F)c(=O)n1 (stereo in doubt) [Compound D4, 1-O-(4-N-(Benzyloxycarbonyl)-gemcitabine)-4-O-(4-N-(n-Butoxycarbonyl)-gemcitabine)-succinate], the “Relative tumor proliferation rate, minimum” value [1, 3] was 25.94%, the “Tumor inhibition rate, maximum” value [1, 3] was 97.32% and the “Relative tumor proliferation rate (T/C %)” value ([1]; Day 0) was 0.00%. The “Relative tumor volume (RTV)” value ([1]; Day 0) was 1.00, the “Tumor growth inhibition rate (TGI %)” value ([1]; Day 0) was 0.00% and the “Tumor volume of HCT-116 human colon cancer xenografts” value ([1]; Day 0) was 44.09 ± 5.99** mm^3. The “Relative tumor proliferation rate (T/C %)” value ([1]; Day 1) was 77.07%, the “Relative tumor volume (RTV)” value ([1]; Day 1) was 1.12 ± 0.12 and the “Tumor growth inhibition rate (TGI %)” value ([1]; Day 1) was 71.17%. For the same molecule, the “Tumor volume of HCT-116 human colon cancer xenografts” value ([1]; Day 1) was 52.03 ± 12.91** mm^3, the “Relative tumor proliferation rate (T/C %)” value ([1]; Day 2) was 66.48% and the “Relative tumor volume (RTV)” value ([1]; Day 2) was 1.12 ± 0.12. For the same molecule, the “Tumor growth inhibition rate (TGI %)” value ([1]; Day 2) was 76.55%, the “Tumor volume of HCT-116 human colon cancer xenografts” value ([1]; Day 2) was 52.03 ± 12.91** mm^3 and the “Relative tumor proliferation rate (T/C %)” value ([1]; Day 4) was 43.31%. The “Relative tumor volume (RTV)” value ([1]; Day 4) was 0.79 ± 0.11, the “Tumor growth inhibition rate (TGI %)” value ([1]; Day 4) was 87.42% and the “Tumor volume of HCT-116 human colon cancer xenografts” value ([1]; Day 4) was 37.37 ± 10.46** mm^3. For the same molecule, the “Relative tumor proliferation rate (T/C %)” value ([1]; Day 7) was 31.86%, the “Relative tumor volume (RTV)” value ([1]; Day 7) was 0.55 ± 0.10 and the “Tumor growth inhibition rate (TGI %)” value ([1]; Day 7) was 94.11%. For the same molecule, the “Tumor volume of HCT-116 human colon cancer xenografts” value ([1]; Day 7) was 25.46 ± 8.17** mm^3, the “Relative tumor proliferation rate (T/C %)” value ([1]; Day 9) was 30.55% and the “Relative tumor volume (RTV)” value ([1]; Day 9) was 0.55 ± 0.12. The “Tumor growth inhibition rate (TGI %)” value ([1]; Day 9) was 96.19%, the “Tumor volume of HCT-116 human colon cancer xenografts” value ([1]; Day 9) was 22.50 ± 5.31** mm^3 and the “Relative tumor proliferation rate (T/C %)” value ([1]; Day 11) was 25.94%. The “Relative tumor volume (RTV)” value ([1]; Day 11) was 0.69 ± 0.20, the “Tumor growth inhibition rate (TGI %)” value ([1]; Day 11) was 97.32% and the “Tumor volume of HCT-116 human colon cancer xenografts” value ([1]; Day 11) was 26.19 ± 5.79** mm^3. For the same molecule, the “Relative tumor proliferation rate (T/C %)” value ([1]; Day 14) was 32.83%, the “Relative tumor volume (RTV)” value ([1]; Day 14) was 1.81 ± 0.54 and the “Tumor growth inhibition rate (TGI %)” value ([1]; Day 14) was 95.12%. The “Tumor volume of HCT-116 human colon cancer xenografts” value ([1]; Day 14) was 70.28 ± 18.37** mm^3, the “Relative tumor proliferation rate (T/C %)” value ([1]; Day 16) was 37.96% and the “Relative tumor volume (RTV)” value ([1]; Day 16) was 3.29 ± 0.82. For the same molecule, the “Tumor growth inhibition rate (TGI %)” value ([1]; Day 16) was 92.12%, the “Tumor volume of HCT-116 human colon cancer xenografts” value ([1]; Day 16) was 142.77 ± 49.34** mm^3 and the “Relative tumor proliferation rate (T/C %)” value ([1]; Day 18) was 26.76%. The “Relative tumor volume (RTV)” value ([1]; Day 18) was 5.11 ± 1.12, the “Tumor growth inhibition rate (TGI %)” value ([1]; Day 18) was 88.56% and the “Tumor volume of HCT-116 human colon cancer xenografts” value ([1]; Day 18) was 228.58 ± 76.92** mm^3. For the same molecule, the “Relative tumor proliferation rate (T/C %)” value ([1]; Day 21) was 37.28%, the “Relative tumor volume (RTV)” value ([1]; Day 21) was 8.73 ± 1.39 and the “Tumor growth inhibition rate (TGI %)” value ([1]; Day 21) was 84.66%. For the same molecule, the “Tumor volume of HCT-116 human colon cancer xenografts” value ([1]; Day 21) was 375.06 ± 86.27 mm^3, the “Relative tumor proliferation rate (T/C %)” value ([1]; Day 23) was 50.04% and the “Relative tumor volume (RTV)” value ([1]; Day 23) was 9.89 ± 1.30. For the same molecule, the “Tumor growth inhibition rate (TGI %)” value ([1]; Day 23) was 82.19%, the “Tumor volume of HCT-116 human colon cancer xenografts” value ([1]; Day 23) was 420.73 ± 76.08 mm^3 and the “Relative tumor proliferation rate (T/C %)” value ([1]; Day 25) was 53.68%. The “Relative tumor volume (RTV)” value ([1]; Day 25) was 11.61 ± 1.51, the “Tumor growth inhibition rate (TGI %)” value ([1]; Day 25) was 80.98% and the “Tumor volume of HCT-116 human colon cancer xenografts” value ([1]; Day 25) was 491.29 ± 83.78 mm^3. The “Relative tumor proliferation rate (T/C %)” value ([1]; Day 28) was 69.72%, the “Relative tumor volume (RTV)” value ([1]; Day 28) was 14.73 ± 2.18 and the “Tumor growth inhibition rate (TGI %)” value ([1]; Day 28) was 77.39%. The “Tumor volume of HCT-116 human colon cancer xenografts” value ([1]; Day 28) was 608.08 ± 85.37 mm^3, the “Relative tumor proliferation rate (T/C %)” value ([1]; Day 30) was 76.91% and the “Relative tumor volume (RTV)” value ([1]; Day 30) was 19.08 ± 2.98. The “Tumor growth inhibition rate (TGI %)” value ([1]; Day 30) was 72.14%, the “Tumor volume of HCT-116 human colon cancer xenografts” value ([1]; Day 30) was 781.78 ± 105.33 mm^3 and the “Inhibition of growth of HCT-116 human colon cancer xenografts (in words)” value ([1]; single IP injection, 300-400 mg/kg) was “higher tumor inhibition rates”. For the same molecule, the “Average rate of weight change of the animals” value ([2]; Day 0) was 0.00%, the “Average weight of the animals” value ([2]; Day 0) was 20.15 ± 0.29 g and the “Average rate of weight change of the animals” value ([2]; Day 1) was −1.17 ± 1.27%. The “Average weight of the animals” value ([2]; Day 1) was 19.90 ± 0.19 g, the “Average rate of weight change of the animals” value ([2]; Day 2) was −8.18 ± 1.56 % and the “Average weight of the animals” value ([2]; Day 2) was 18.48 ± 0.2 g. The “Average rate of weight change of the animals” value ([2]; Day 4) was −5.33 ± 1.78%, the “Average weight of the animals” value ([2]; Day 4) was 19.07 ± 0.36 g and the “Average rate of weight change of the animals” value ([2]; Day 7) was −1.43 ± 1.92%. The “Average weight of the animals” value ([2]; Day 7) was 19.85 ± 0.38 g, the “Average rate of weight change of the animals” value ([2]; Day 9) was 2.91 ± 0.55 % and the “Average weight of the animals” value ([2]; Day 9) was 20.73 ± 0.29 g. The “Average rate of weight change of the animals” value ([2]; Day 11) was 4.47 ± 0.52 %, the “Average weight of the animals” value ([2]; Day 11) was 21.05 ± 0.31 g and the “Average rate of weight change of the animals” value ([2]; Day 14) was 3.72 ± 0.73 %. The “Average weight of the animals” value ([2]; Day 14) was 20.90 ± 0.34 g, the “Average rate of weight change of the animals” value ([2]; Day 16) was 6.62 ± 0.79 % and the “Average weight of the animals” value ([2]; Day 16) was 21.48 ± 0.34 g. For the same molecule, the “Average rate of weight change of the animals” value ([2]; Day 18) was 8.99 ± 1.38 %, the “Average weight of the animals” value ([2]; Day 18) was 21.95 ± 0.27 g and the “Average rate of weight change of the animals” value ([2]; Day 21) was 7.41 ± 1.37 %. For the same molecule, the “Average weight of the animals” value ([2]; Day 21) was 21.63 ± 0.30 g, the “Average rate of weight change of the animals” value ([2]; Day 23) was 9.37 ± 1.82 % and the “Average weight of the animals” value ([2]; Day 23) was 22.03 ± 0.43 g. The “Average rate of weight change of the animals” value ([2]; Day 25) was 10.69 ± 2.14 %, the “Average weight of the animals” value ([2]; Day 25) was 22.30 ± 0.49 g and the “Average rate of weight change of the animals” value ([2]; Day 28) was 8.62 ± 2.68%. For the same molecule, the “Average weight of the animals” value ([2]; Day 28) was 21.88 ± 0.59 g, the “Average rate of weight change of the animals” value ([2]; Day 30) was 9.36 ± 2.21% and the “Average weight of the animals” value ([2]; Day 30) was 22.03 ± 0.53 g. The “Toxicity in tumor-bearing mice (in words)” value ([2]; single IP injection, D2 400 mg/kg, judged from body weight versus control) was “no toxicity”.
